As usually defined, the IC50 is the concentration needed to halve the response being measured.

The results in this text go back to patent US10301306B2, “Substituted dihydro-1H-pyrrolo[3,2-c]pyridin-4(5H)-ones as RIPK3 inhibitors” (BRISTOL-MYERS SQUIBB COMPANY, priority 2014, dated 2019).

Chain of RIPK3 (Q9Y572 whole entry, species assumed): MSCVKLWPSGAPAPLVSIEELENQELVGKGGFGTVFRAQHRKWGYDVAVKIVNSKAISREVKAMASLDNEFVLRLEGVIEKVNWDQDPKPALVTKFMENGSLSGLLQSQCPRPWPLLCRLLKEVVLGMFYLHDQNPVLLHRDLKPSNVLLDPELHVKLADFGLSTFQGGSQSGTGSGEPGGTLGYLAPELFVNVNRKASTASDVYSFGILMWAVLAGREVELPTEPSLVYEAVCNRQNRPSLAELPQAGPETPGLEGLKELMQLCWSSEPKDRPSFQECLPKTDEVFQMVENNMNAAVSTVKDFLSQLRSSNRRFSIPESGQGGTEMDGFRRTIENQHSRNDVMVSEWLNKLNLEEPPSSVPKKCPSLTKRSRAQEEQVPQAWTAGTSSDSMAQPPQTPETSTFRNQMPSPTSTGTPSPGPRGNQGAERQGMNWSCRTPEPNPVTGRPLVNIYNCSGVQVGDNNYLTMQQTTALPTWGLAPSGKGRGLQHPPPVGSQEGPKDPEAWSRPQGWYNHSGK

One assay concerns the target RIPK3 (Homo sapiens (Human), UniProt Q9Y572). The assay can be described thus: RIPK3 HTRF Kinase Assay. The class given is binding. The following applies: RIPK3 1 nM; HTRF probe 23 nM; 60 min at room temperature; read-out: IC50 for Inhibition of RIPK3. (Time-resolved FRET reads energy transfer from a long-lived donor to a nearby acceptor.)
For `O=C1NCCc2c1c(-c1ccc(F)cc1)c(-c1ccncc1)n2Cc1ccc(F)cc1C(F)(F)F` [Example 55], the IC50 was below 30 nM.
The same measure, in the same setting: under `O=C1NCCc2c1c(-c1ccc(F)cc1)c(-c1ccncc1)n2Cc1nnc(C2CC2)o1` [Example 56] stands 100 to 15000 nM.
With `CC(C)Cn1c2c(c(-c3ccc(F)cc3)c1-c1ccncc1)C(=O)NCC2` [Example 58], the IC50 was 31 to 100 nM.
Still for that read-out and setting: with `N#CCCCn1c2c(c(-c3ccc(F)cc3)c1-c1ccncc1)C(=O)NCC2` [Example 59] the figure was 100 to 15000 nM.
The same measure, in the same setting: with `Cc1nc(Cn2c3c(c(-c4ccc(F)cc4)c2-c2ccncc2)C(=O)NCC3)cs1` [Example 60] the figure was 31 to 100 nM.
Take `CC(C)(C)Cn1c2c(c(-c3ccc(F)cc3)c1-c1ccncc1)C(=O)NCC2` [Example 61]: the IC50 is 100 to 15000 nM.
Same read-out and setting: with `CCn1c2c(c(-c3ccc(F)cc3)c1-c1ccncc1)C(=O)NCC2` [Example 62] the figure was 100 to 15000 nM; with `CCC(C)n1c2c(c(-c3ccc(F)cc3)c1-c1ccncc1)C(=O)NCC2` (centres unmarked) [Example 63], 100 to 15000 nM; with `O=C1NCCc2c1c(-c1ccc(F)cc1)c(-c1ccncc1)n2Cc1ccc(F)cc1F` [Example 64], below 30 nM.
Still for that read-out and setting: under `Cc1cc(Cn2c3c(c(-c4ccc(F)cc4)c2-c2ccncc2)C(=O)NCC3)n(C)n1` [Example 65] stands below 30 nM.
Regarding `O=C1NCCc2c1c(-c1ccc(F)cc1)c(-c1ccncc1)n2Cc1ccncc1` [Example 66], the IC50 is below 30 nM.
On the same count and under the same terms, with `COc1cc(C(F)(F)F)ccc1Cn1c2c(c(-c3ccc(F)cc3)c1-c1ccncc1)C(=O)NCC2` [Example 67] the figure was 31 to 100 nM; with `N#Cc1ccccc1Cn1c2c(c(-c3ccc(F)cc3)c1-c1ccncc1)C(=O)NCC2` [Example 68], below 30 nM.
On the same count and under the same terms, under `O=C1NCCc2c1c(-c1ccc(F)cc1)c(-c1ccncc1)n2CCCO` [Example 69] stands 31 to 100 nM; under `O=C1NCCc2c1c(-c1ccc(F)cc1)c(-c1ccncc1)n2CC(=O)N1CCCC1` [Example 70], 31 to 100 nM; under `O=C1NCCc2c1c(-c1ccc(F)cc1)c(-c1ccncc1)n2Cc1c(F)cc(F)cc1F` [Example 71], below 30 nM.
The same measure, in the same setting: with `O=C1NCCc2c1c(-c1ccc(F)cc1)c(-c1ccncc1)n2Cc1ccncn1` [Example 72] the figure was 100 to 15000 nM.
Take `O=C1NCCc2c1c(-c1ccc(F)cc1)c(-c1ccncc1)n2Cc1c(F)cccc1C(F)(F)F` [Example 73]: the IC50 was below 30 nM.
For `O=C1NCCc2c1c(-c1ccc(F)cc1)c(-c1ccncc1)n2Cc1ccc(Cl)cc1F` [Example 74], the half-maximal inhibitory concentration (IC50) was below 30 nM.
Same read-out and setting: with `CC(C)(C)CCn1c2c(c(-c3ccc(F)cc3)c1-c1ccncc1)C(=O)NCC2` [Example 75] the figure was below 30 nM; with `O=C1NCCc2c1c(-c1ccc(F)cc1)c(-c1ccncc1)n2Cc1ccccn1` [Example 76], 100 to 15000 nM.
`N#Cc1cccc(F)c1Cn1c2c(c(-c3ccc(F)cc3)c1-c1ccncc1)C(=O)NCC2` [Example 77]: the IC50 was below 30 nM.
Still for that read-out and setting: with `O=C1NCCc2c1c(-c1ccc(F)cc1)c(-c1ccncc1)n2CC1CCCC1` [Example 78] the figure was below 30 nM; with `Cc1cc(Cn2c3c(c(-c4ccc(F)cc4)c2-c2ccncc2)C(=O)NCC3)no1` [Example 79], 31 to 100 nM; with `Cn1ccnc1Cn1c2c(c(-c3ccc(F)cc3)c1-c1ccncc1)C(=O)NCC2` [Example 80], 100 to 15000 nM.
As for `Cc1nc(Cn2c3c(c(-c4ccc(F)cc4)c2-c2ccncc2)C(=O)NCC3)no1` [Example 81], the half-maximal inhibitory concentration (IC50) lay in the range of 31 to 100 nM.
Same read-out and setting: with `O=C1NCCc2c1c(-c1ccc(F)cc1)c(-c1ccncc1)n2CCO` [Example 82] the figure was 100 to 15000 nM; with `CC(C)NC(=O)Cn1c2c(c(-c3ccc(F)cc3)c1-c1ccncc1)C(=O)NCC2` [Example 83], 100 to 15000 nM; with `N#Cc1cc(F)c(Cn2c3c(c(-c4ccc(F)cc4)c2-c2ccncc2)C(=O)NCC3)c(F)c1` [Example 84], below 30 nM.
Take `O=C(Nc1cc(-c2c(-c3ccc(F)cc3)c3c(n2CC2CCOCC2)CCNC3=O)ccn1)c1ccncc1` [Example 85]: the IC50 fell in the range of 100 to 15000 nM.
On the same count and under the same terms, with `O=C(Nc1cc(-c2c(-c3ccc(F)cc3)c3c(n2CC2CCOCC2)CCNC3=O)ccn1)c1ccccc1` [Example 86] the figure was 100 to 15000 nM.
Still for that read-out and setting: under `O=C1NCCc2c1c(-c1ccc(F)cc1)c(-c1ccnc(NC(=O)C3CC3)c1)n2CC1CCOCC1` [Example 87] stands 31 to 100 nM; under `CC(C)C(=O)Nc1cc(-c2c(-c3ccc(F)cc3)c3c(n2CC2CCOCC2)CCNC3=O)ccn1` [Example 88], 100 to 15000 nM.
The same measure, in the same setting: with `COc1ccc(C(=O)Nc2cc(-c3c(-c4ccc(F)cc4)c4c(n3CC3CCOCC3)CCNC4=O)ccn2)cc1` [Example 89] the figure was 100 to 15000 nM.
With `CCC(=O)Nc1cc(-c2c(-c3ccc(F)cc3)c3c(n2CC2CCOCC2)CCNC3=O)ccn1` [Example 90], the IC50 fell in the range of 100 to 15000 nM.
Still for that read-out and setting: with `CC(C)OC(=O)Nc1cc(-c2c(-c3ccc(F)cc3)c3c(n2CC2CCOCC2)CCNC3=O)ccn1` [Example 91] the figure was 100 to 15000 nM; with `CS(=O)(=O)Nc1cc(-c2c(-c3ccc(F)cc3)c3c(n2CC2CCOCC2)CCNC3=O)ccn1` [Example 92], 100 to 15000 nM; with `CC(C)CC(=O)Nc1cc(-c2c(-c3ccc(F)cc3)c3c(n2CC2CCOCC2)CCNC3=O)ccn1` [Example 93], 100 to 15000 nM.
The same measure, in the same setting: with `CCCC(=O)Nc1cc(-c2c(-c3ccc(F)cc3)c3c(n2CC2CCOCC2)CCNC3=O)ccn1` [Example 94] the figure was 100 to 15000 nM; with `CCOC(=O)Nc1cc(-c2c(-c3ccc(F)cc3)c3c(n2CC2CCOCC2)CCNC3=O)ccn1` [Example 95], 31 to 100 nM; with `CCNC(=O)Nc1cc(-c2c(-c3ccc(F)cc3)c3c(n2CC2CCOCC2)CCNC3=O)ccn1` [Example 97], 100 to 15000 nM.
Same read-out and setting: with `CC(=O)Nc1cc(-c2c(-c3ccc(F)cc3)c3c(n2Cc2ccc(F)c(C#N)c2)CCNC3=O)ccn1` [Example 99] the figure was 31 to 100 nM.
`CC(=O)Nc1cc(-c2c(-c3ccc(F)cc3)c3c(n2Cc2ccc(F)cc2C#N)CCNC3=O)ccn1` [Example 100]: the IC50 is below 30 nM.
On the same count and under the same terms, with `CC(=O)Nc1cc(-c2c(-c3ccc(F)cc3)c3c(n2Cc2ccc(C(F)(F)F)cc2F)CCNC3=O)ccn1` [Example 101] the figure was below 30 nM; with `CC(=O)Nc1cc(-c2c(-c3ccc(F)cc3)c3c(n2Cc2ccc(C(F)(F)F)cc2)CCNC3=O)ccn1` [Example 102], 100 to 15000 nM.
Same read-out and setting: with `Cc1ccc(-c2c3c(n(CC4CCOCC4)c2-c2ccncc2)CCNC3=O)c(C)c1` [Example 103] the figure was 100 to 15000 nM; with `COc1ccc(-c2c3c(n(CC4CCOCC4)c2-c2ccncc2)CCNC3=O)cc1` [Example 104], 100 to 15000 nM; with `O=C1NCCc2c1c(-c1cccc(C(F)(F)F)c1)c(-c1ccncc1)n2CC1CCOCC1` [Example 105], 100 to 15000 nM.
The same measure, in the same setting: under `CC(=O)Nc1cccc(-c2c3c(n(CC4CCOCC4)c2-c2ccncc2)CCNC3=O)c1` [Example 106] stands 100 to 15000 nM.
Turning to `COc1ccc(-c2c3c(n(CC4CCOCC4)c2-c2ccncc2)CCNC3=O)cn1` [Example 107], the IC50 lay within 100 to 15000 nM.
On the same count and under the same terms, under `CN(C)c1cccc(-c2c3c(n(CC4CCOCC4)c2-c2ccncc2)CCNC3=O)c1` [Example 109] stands 100 to 15000 nM; under `O=C1NCCc2c1c(-c1cccc(OC(F)(F)F)c1)c(-c1ccncc1)n2CC1CCOCC1` [Example 110], 100 to 15000 nM.
As for `O=C1NCCc2c1c(-c1cnc3ccccc3c1)c(-c1ccncc1)n2CC1CCOCC1` [Example 111], the IC50 lay within 100 to 15000 nM.
On the same count and under the same terms, with `O=C1NCCc2c1c(-c1cccc3ccncc13)c(-c1ccncc1)n2CC1CCOCC1` [Example 112] the figure was 100 to 15000 nM.
The same measure, in the same setting: with `COc1ccc(-c2c3c(n(Cc4ccc(F)cc4C#N)c2-c2ccncc2)CCNC3=O)cc1OC` [Example 113] the figure was 100 to 15000 nM; with `N#Cc1cc(F)ccc1Cn1c2c(c(-c3cccc(OC(F)(F)F)c3)c1-c1ccncc1)C(=O)NCC2` [Example 114], 31 to 100 nM; with `N#Cc1cc(F)ccc1Cn1c2c(c(-c3ccc(F)c(F)c3)c1-c1ccncc1)C(=O)NCC2` [Example 115], below 30 nM.
Same read-out and setting: with `N#Cc1cc(F)ccc1Cn1c2c(c(-c3ccc4ncccc4c3)c1-c1ccncc1)C(=O)NCC2` [Example 116] the figure was 100 to 15000 nM; with `COc1cc(F)cc(-c2c3c(n(Cc4ccc(F)cc4C#N)c2-c2ccncc2)CCNC3=O)c1` [Example 117], 31 to 100 nM.
As for `Cn1ccc2cc(-c3c4c(n(Cc5ccc(F)cc5C#N)c3-c3ccncc3)CCNC4=O)ccc21` [Example 118], the IC50 lay in the range of 31 to 100 nM.
`COc1ccc(-c2c3c(n(Cc4ccc(F)cc4C#N)c2-c2ccncc2)CCNC3=O)cc1` [Example 121]: the IC50 lay in the range of 31 to 100 nM.
The same measure, in the same setting: under `N#Cc1cc(F)ccc1Cn1c2c(c(-c3ccc(OC(F)(F)F)cc3)c1-c1ccncc1)C(=O)NCC2` [Example 122] stands 100 to 15000 nM; under `N#Cc1cc(F)ccc1Cn1c2c(c(-c3cccc(C(F)(F)F)c3)c1-c1ccncc1)C(=O)NCC2` [Example 123], below 30 nM; under `COc1ccc(-c2c3c(n(Cc4ccc(F)cc4C#N)c2-c2ccncc2)CCNC3=O)cn1` [Example 124], below 30 nM.
Same read-out and setting: with `CS(=O)(=O)c1cccc(-c2c3c(n(Cc4ccc(F)cc4C#N)c2-c2ccncc2)CCNC3=O)c1` [Example 126] the figure was 100 to 15000 nM; with `N#Cc1cc(F)ccc1Cn1c2c(c(-c3ccsc3)c1-c1ccncc1)C(=O)NCC2` [Example 128], below 30 nM; with `N#Cc1cc(F)ccc1Cn1c2c(c(-c3cccc(Cl)c3Cl)c1-c1ccncc1)C(=O)NCC2` [Example 129], 31 to 100 nM.

Still in this assay, the particulars now being: read-out: IC50 for Inhibition of RIPK3.
`O=C1NCCc2c1c(-c1cccnc1)c(-c1ccncc1)n2CC1CCOCC1` [Example 108]: the IC50 was 100 to 15000 nM.
Take `N#Cc1cc(F)ccc1Cn1c2c(c(-c3cccnc3)c1-c1ccncc1)C(=O)NCC2` [Example 119]: the half-maximal inhibitory concentration (IC50) lay within 31 to 100 nM.
On the same count and under the same terms, with `N#Cc1cc(F)ccc1Cn1c2c(c(-c3cccc(-c4ccccc4)c3)c1-c1ccncc1)C(=O)NCC2` [Example 120] the figure was 100 to 15000 nM; with `N#Cc1cc(F)ccc1Cn1c2c(c(-c3ccccc3-c3ccccc3)c1-c1ccncc1)C(=O)NCC2` [Example 125], 100 to 15000 nM.
